From US12129246B1, “Hydroquinazoline derivatives for the treatment of a disease or disorder” (Novartis AG, priority 2023, dated 2024)
Read-outs that look alike come from different tables or passages of the source.

What was measured:
[1] = target: T1, human NPR1 (Homo sapiens, UniProt P16066); test: Cellular cGMP production assay, human NPR1 expressing CHO-K1 cells (CisBio HTRF); assay type: cell-based; conditions: for AC50: cGMP production, 30 min at 37° C., 12-point dose-response from 30 μM; for Human NPR1 Amax (% of ANP): maximum cGMP production as percentage of the maximum cGMP produced with ANP
T1 construct: host or cells: CHO-K1
T1 sequence (P16066 33-1061): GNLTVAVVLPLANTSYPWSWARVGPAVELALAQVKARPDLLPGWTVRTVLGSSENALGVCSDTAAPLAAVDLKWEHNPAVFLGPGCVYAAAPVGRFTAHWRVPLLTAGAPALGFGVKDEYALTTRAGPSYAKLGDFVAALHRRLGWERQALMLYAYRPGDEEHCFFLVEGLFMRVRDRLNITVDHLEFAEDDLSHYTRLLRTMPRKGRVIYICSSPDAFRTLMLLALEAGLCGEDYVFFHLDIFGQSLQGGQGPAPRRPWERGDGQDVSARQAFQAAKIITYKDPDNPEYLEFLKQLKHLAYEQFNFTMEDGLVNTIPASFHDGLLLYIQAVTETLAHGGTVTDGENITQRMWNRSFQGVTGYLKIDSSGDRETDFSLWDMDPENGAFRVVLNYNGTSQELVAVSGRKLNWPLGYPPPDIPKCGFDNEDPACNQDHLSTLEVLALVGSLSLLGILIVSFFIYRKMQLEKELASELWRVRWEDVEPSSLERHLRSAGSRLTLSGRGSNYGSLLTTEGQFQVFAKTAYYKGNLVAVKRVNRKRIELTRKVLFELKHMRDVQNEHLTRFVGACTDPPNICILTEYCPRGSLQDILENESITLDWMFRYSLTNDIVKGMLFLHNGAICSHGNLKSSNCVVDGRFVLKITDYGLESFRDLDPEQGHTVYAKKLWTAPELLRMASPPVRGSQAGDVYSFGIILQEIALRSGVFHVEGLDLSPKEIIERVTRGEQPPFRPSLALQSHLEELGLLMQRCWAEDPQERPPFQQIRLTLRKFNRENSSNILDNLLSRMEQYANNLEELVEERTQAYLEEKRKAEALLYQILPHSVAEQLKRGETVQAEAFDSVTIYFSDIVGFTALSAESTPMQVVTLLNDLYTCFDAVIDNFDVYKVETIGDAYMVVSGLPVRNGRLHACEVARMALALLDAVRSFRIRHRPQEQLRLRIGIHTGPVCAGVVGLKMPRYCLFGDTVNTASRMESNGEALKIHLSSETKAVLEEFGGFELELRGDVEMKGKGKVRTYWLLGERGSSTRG
Description: (§1) Cellular cGMP is a major second messenger that mediates cell activities and is synthesized by activated NPR1 triggered by binding of the natural ligand ANP. […] The assay was performed according to manufacturer's instructions with minor deviations. […] All compound stocks were diluted in PBS+0.1% BSA at 2-fold the final assay concentration. After addition of 10 μL/well of assay buffer (PBS+0.1% BSA+1 mM IBMX) and 10 μL/well of the compounds in different concentrations (12-point dose-response with 3-fold dilutions from a top concentration of 30 μM), the plate was incubated for 30 min at 37° C. to allow for cGMP production. In parallel, a standard curve using a calibrator (contained in the kit) was generated. The cells were lysed and a mix of cGMP-d2 and anti-cGMP-cryptate was added and incubated for 1 h at room temperature. The readout was performed using an Envision plate reader (PerkinElmer) with an excitation wavelength of 317 nm and an emission wavelength of 665 nm. cGMP concentration (Delta F [° %]) was calculated according to the following formulae: […]

[2] = target: monkey NPR1 (Macaca fascicularis, UniProt A0A7N9DBT9); test: Cellular cGMP production assay, monkey NPR1 expressing CHO-K1 cells (CisBio HTRF); assay type: cell-based; conditions: for Monkey NPR1 Amax (% of ANP): maximum cGMP production as percentage of the maximum cGMP produced with ANP
monkey NPR1, sequence (A0A7N9DBT9 entry or part of it): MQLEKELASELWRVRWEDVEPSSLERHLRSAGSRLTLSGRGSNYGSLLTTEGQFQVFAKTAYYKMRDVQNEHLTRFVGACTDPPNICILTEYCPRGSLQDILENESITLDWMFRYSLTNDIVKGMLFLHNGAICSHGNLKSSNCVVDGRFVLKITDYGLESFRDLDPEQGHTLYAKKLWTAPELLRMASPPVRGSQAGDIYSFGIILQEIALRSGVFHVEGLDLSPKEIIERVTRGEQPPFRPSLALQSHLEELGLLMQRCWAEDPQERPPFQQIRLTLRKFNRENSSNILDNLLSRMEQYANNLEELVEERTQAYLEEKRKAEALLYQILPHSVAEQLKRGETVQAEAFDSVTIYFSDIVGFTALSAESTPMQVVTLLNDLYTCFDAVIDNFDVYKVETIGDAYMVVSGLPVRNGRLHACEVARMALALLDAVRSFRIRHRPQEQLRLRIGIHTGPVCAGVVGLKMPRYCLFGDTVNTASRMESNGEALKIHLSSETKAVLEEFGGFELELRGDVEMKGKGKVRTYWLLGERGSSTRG
Description: as §1

[3] = cGMP production, monkey NPR1 CHO-K1 cells, 30 min at 37° C., 12-point dose-response from 30 μM, read-out: Monkey NPR1 AC50

Row | SMILES | AC50 [1] [nM] | Human NPR1 Amax (% of ANP) [1] | AC50 [2] [nM] | Monkey NPR1 Amax (% of ANP) ([2]; monkey NPR1 CHO-K1 cells) | AC50 [2, 3] [nM]
1 | CC[C@@H](Nc1nc2c(c(N[C@@H](CN3C4CCCC3CC4)c3ccccc3)n1)C[C@H](c1ccccc1)CC2)[C@H]1CC[C@H](C(=O)O)CC1 [Compound 49, (1R,4r)-4-((1R)-1-(((6R)-4-(((1R)-2-(8-azabicyclo[3.2.1]octan-8-yl)-1-phenylethyl)amino)-6-phenyl-5,6,7,8-tetrahydroquinazolin-2-yl)amino)propyl)cyclohexane-1-carboxylic acid] | 185 | 104.186 % of ANP | 138 | 106.033 % of ANP | –
2 | CC[C@@H](Nc1nc2c(c(N[C@@H](CN3CCCC3)c3ccccc3)n1)C[C@H](c1ccccc1)CC2)[C@H]1CC[C@H](C(=O)O)CC1 [Compound 85, (1R,4r)-4-((R)-1-(((R)-6-phenyl-4-(((R)-1-phenyl-2-(pyrrolidin-1-yl)ethyl)amino)-5,6,7,8-tetrahydroquinazolin-2-yl)amino)propyl)cyclohexane-1-carboxylic acid] | 285 | 102.461 % of ANP | – | 95.638 % of ANP | 238
3 | CC[C@@H](Nc1nc2c(c(N[C@@H](CN3C4CC5CC(C4)CC3C5)c3cnn(C)c3)n1)C[C@H](c1ccccc1)CC2)[C@H]1CC[C@H](C(=O)O)CC1 [Compound 71, (1R,4r)-4-((R)-1-(((R)-4-(((R)-2-((5R,7R)-2-azaadamantan-2-yl)-1-(1-methyl-1H-pyrazol-4-yl)ethyl)amino)-6-phenyl-5,6,7,8-tetrahydroquinazolin-2-yl)amino)propyl)cyclohexane-1-carboxylic acid] | 237 | 91.827 % of ANP | – | 121.791 % of ANP | 78
4 | CC[C@H]([C@H]1CC[C@H](C(=O)O)CC1)N(C)c1nc2c(c(N[C@@H](CN3CCC[C@H](C)C3)c3cnn(C)c3)n1)C[C@@H](c1ccccc1)CC2 [Compound 101, (1R,4r)-4-((R)-1-(methyl((S)-4-(((R)-1-(1-methyl-1H-pyrazol-4-yl)-2-((S)-3-methylpiperidin-1-yl)ethyl)amino)-6-phenyl-5,6,7,8-tetrahydroquinazolin-2-yl)amino)propyl)cyclohexane-1-carboxylic acid] | 377 | 93.777 % of ANP | – | 101.476 % of ANP | 335
5 | CC[C@@H](N(C)c1nc2c(c(N[C@@H](CN3C4CCCC3CC4)c3cnc(C)s3)n1)C[C@H](c1cccc(F)c1)CC2)C12CC(C(=O)O)(C1)C2 [Compound 77, 3-((1R)-1-(((6R)-4-(((1S)-2-(8-azabicyclo[3.2.1]octan-8-yl)-1-(2-methylthiazol-5-yl)ethyl)amino)-6-(3-fluorophenyl)-5,6,7,8-tetrahydroquinazolin-2-yl)(methyl)amino)propyl)bicyclo[1.1.1]pentane-1-carboxylic acid] | 249 | 95.666 % of ANP | 134 | 96.715 % of ANP | –
6 | CC[C@H]([C@H]1CC[C@](F)(C(=O)O)CC1)N(C)c1nc2c(c(N[C@H](CN3CCC[C@H](C)C3)c3cnn(C)c3)n1)C[C@H](c1ccccc1)CC2 [Compound 82, (1S,4s)-1-fluoro-4-((R)-1-(methyl((R)-4-(((S)-1-(1-methyl-1H-pyrazol-4-yl)-2-((S)-3-methylpiperidin-1-yl)ethyl)amino)-6-phenyl-5,6,7,8-tetrahydroquinazolin-2-yl)amino)propyl)cyclohexane-1-carboxylic acid] | 272 | 96.493 % of ANP | – | 106.556 % of ANP | 278
7 | CC[C@@H](N(C)c1nc2c(c(N[C@@H](CN3CCCCCC3)c3cnn(C)c3)n1)C[C@H](c1cccc(F)c1)CC2)C12CC(C(=O)O)(C1)C2 [Compound 1, 3-((R)-1-(((R)-4-(((R)-2-(azepan-1-yl)-1-(1-methyl-1H-pyrazol-4-yl)ethyl)amino)-6-(3-fluorophenyl)-5,6,7,8-tetrahydroquinazolin-2-yl)(methyl)amino)propyl)bicyclo[1.1.1]pentane-1-carboxylic acid] | 14 | 93.788 % of ANP | – | 97.462 % of ANP | 10
8 | CC[C@H]([C@H]1CC[C@H](C(=O)O)CC1)N(C)c1nc2c(c(N[C@@H](CN3C[C@H]4C[C@@H](C3)C4O)c3cnn(C)c3)n1)C[C@H](c1ccccc1)CC2 (stereo partly drawn) [Compound 138, (1R,4r)-4-((1R)-1-(((6R)-4-(((1R)-2-((1R,5S)-6-hydroxy-3-azabicyclo[3.1.1]heptan-3-yl)-1-(1-methyl-1H-pyrazol-4-yl)ethyl)amino)-6-phenyl-5,6,7,8-tetrahydroquinazolin-2-yl)(methyl)amino)propyl)cyclohexane-1-carboxylic acid] | 852 | 105.993 % of ANP | 734 | 101.929 % of ANP | –
9 | CC[C@H]([C@H]1CC[C@H](C(=O)O)CC1)N(C)c1nc2c(c(N[C@@H](CN3CCC(C)CC3)c3cnn(C)c3)n1)C[C@H](c1ccccc1)CC2 [Compound 145, (1R,4r)-4-((R)-1-(methyl((R)-4-(((R)-1-(1-methyl-1H-pyrazol-4-yl)-2-(4-methylpiperidin-1-yl)ethyl)amino)-6-phenyl-5,6,7,8-tetrahydroquinazolin-2-yl)amino)propyl)cyclohexane-1-carboxylic acid] | 1050 | 97.636 % of ANP | – | 103.150 % of ANP | 900
10 | CC[C@@H](Nc1nc2c(c(N[C@@H](CN3CCC(C)CC3)c3cnn(C)c3)n1)C[C@H](c1ccccc1)CC2)[C@H]1CC[C@H](C(=O)O)CC1 [Compound 121, (1R,4r)-4-((R)-1-(((R)-4-(((R)-1-(1-methyl-1H-pyrazol-4-yl)-2-(4-methylpiperidin-1-yl)ethyl)amino)-6-phenyl-5,6,7,8-tetrahydroquinazolin-2-yl)amino)propyl)cyclohexane-1-carboxylic acid] | 570 | 100.330 % of ANP | – | 102.117 % of ANP | 382
11 | CC[C@H]([C@H]1CC[C@H](C(=O)O)CC1)N(C)c1nc2c(c(N[C@@H](CN3C4CCCC3CC4)c3cnn(C)c3)n1)C[C@H](c1ccccc1F)CC2 [Compound 62, (1R,4r)-4-((1R)-1-(((6R)-4-(((1R)-2-(8-azabicyclo[3.2.1]octan-8-yl)-1-(1-methyl-1H-pyrazol-4-yl)ethyl)amino)-6-(2-fluorophenyl)-5,6,7,8-tetrahydroquinazolin-2-yl)(methyl)amino)propyl)cyclohexane-1-carboxylic acid] | 207 | 94.244 % of ANP | 133 | 103.497 % of ANP | –
12 | CC[C@H]([C@H]1CC[C@H](C(=O)O)CC1)N(C)c1nc2c(c(N[C@@H](CN3CCC[C@H](C(F)F)C3)c3cnn(C)c3)n1)C[C@H](c1cccc(F)c1)CC2 [Compound 54, (1R,4r)-4-((R)-1-(((R)-4-(((R)-2-((S)-3-(difluoromethyl)piperidin-1-yl)-1-(1-methyl-1H-pyrazol-4-yl)ethyl)amino)-6-(3-fluorophenyl)-5,6,7,8-tetrahydroquinazolin-2-yl)(methyl)amino)propyl)cyclohexane-1-carboxylic acid] | 194 | 95.979 % of ANP | – | 103.704 % of ANP | 174
